In brackets after ≈: the same amount, converted by molar mass. Read-outs that look alike come from different tables or passages of the source.
What was measured:
[1] = Solubility in aqueous solution; format: physicochemical; details: 25° C. aqueous solution
Text: Therefore, the 1,2-propanediol and DMSO solvates of etoricoxib obtained in the present disclosure both effectively improve the solubility of etoricoxib in an aqueous solution.

[2] = Onset temperature of desolvation in TG test (thermogravimetric analysis); format: physicochemical; details: TGA, heating rate 10° C./min, 25° C. to 250° C., nitrogen
[3] = Crystal size and size distribution; format: physicochemical
Description: (§1) The 1,2-propanediol and DMSO solvates of etoricoxib obtained in the present disclosure are rod-like and bulk crystals, respectively, as shown in FIG. 10 and FIG. 11. The etoricoxib crystal form V in the prior art has a volume-average size of 16 μm and a repose angle of 44°; and the etoricoxib hemihydrate has a volume-average size of 19 μm and a repose angle of 48°. […] Therefore, the 1,2-propanediol and DMSO solvates of etoricoxib obtained in the present disclosure are perfect crystals with smooth surfaces, which are not easy to agglomerate and have prominent flowability.

[4] = Thermal and moisture stability on storage at room/ambient temperature; format: physicochemical; details: for moisture stability (in words): ambient temperature, transformation into a hydrate; for thermal stability (in words): stored at room temperature
Description: The 1,2-propanediol and DMSO solvates of etoricoxib obtained in the present disclosure have a relatively high desolvation temperature. The 1,2-propanediol and the DMSO have boiling points of […] and 189° C., respectively. […] Moreover, the host-guest intermolecular interaction energies in the crystal structure of etoricoxib 1,2-propanediol and DMSO solvates are −37.22 kJ/mol and −43.37 kJ/mol respectively, which are much higher than that (−30.53 kJ/mol) in hemihydrate crystal structure. It is difficult for water molecules to enter a unit cell of the 1,2-propanediol and DMSO solvates to replace the 1,2-propanediol and DMSO molecules at an ambient temperature. […] As a result, the 1,2-propanediol and DMSO solvates of etoricoxib obtained in the present disclosure both have prominent thermal stability and moisture stability.

[5] = Repose angle (particle flowability); format: physicochemical
Description: as §1

[6] = prior-art hydrates, cited from earlier work
[7] = listed as 1,2-propanediol solvate of etoricoxib
[8] = listed as DMSO solvate of etoricoxib
[9] = listed as etoricoxib hemihydrate

In the case of `Cc1ccc(-c2ncc(Cl)cc2-c2ccc(S(C)(=O)=O)cc2)cn1` [1,2-propanediol solvate], the “solubility in aqueous solution” value [1, 7] is reported as 527 µg/mL, the “Onset temperature of desolvation in TG test” value (shortened to “Onset temperature … in TG test”) [2] is reported as 94 ± 1 °C and the “Onset temperature … in TG test” value [2, 7] is reported as 94 °C. For the same molecule, the primary crystal size [3] was 100 μm, the “variation coefficient of size distribution” value (from here on “variation coefficient”) [3, 7] was 23.6% and the “moisture stability (in words)” value [4] was “prominent moisture stability”. For the same molecule, the “thermal stability (in words)” value [4] was “excellent thermal stability”.

In the case of `Cc1ccc(-c2ncc(Cl)cc2-c2ccc(S(C)(=O)=O)cc2)cn1` [DMSO solvate], the “solubility in aqueous solution” value [1, 8] is reported as 1465 µg/mL, the “Onset temperature … in TG test” value [2] is reported as 66 ± 1 °C and the “Onset temperature … in TG test” value [2, 8] is reported as 66 °C. For the same molecule, the volume-average size [3] was 120 μm, the “variation coefficient” value [3, 8] was 19.7% and the “moisture stability (in words)” value [4] was “prominent moisture stability”. For the same molecule, the “thermal stability (in words)” value [4] was “excellent thermal stability”.

With `Cc1ccc(-c2ncc(Cl)cc2-c2ccc(S(C)(=O)=O)cc2)cn1` [EG solvate] the “Onset temperature … in TG test” value [2] was 96 ± 1 °C and the “Onset temperature … in TG test” value ([2]; listed as EG solvate of etoricoxib) was 96 °C.

For `Cc1ccc(-c2ncc(Cl)cc2-c2ccc(S(C)(=O)=O)cc2)cn1` [Formamide solvate], the “Onset temperature … in TG test” value ([2]; listed as formamide solvate of etoricoxib) was 90 °C.

In the case of `Cc1ccc(-c2ncc(Cl)cc2-c2ccc(S(C)(=O)=O)cc2)cn1` [Hemihydrate, 5-chloro-6′-methyl-3-[4-(methylsulfonyl)phenyl]-2,3′-bipyridine], the “variation coefficient” value [3] is reported as 53.6%, the volume-average size [3, 9] is reported as 19 μm and the repose angle [5, 9] is reported as 48 °. For the same molecule, the “onset temperature of dehydration” value ([6]; listed as hemihydrate) was “lower than 56 °C”.

In the case of `Cc1ccc(-c2ncc(Cl)cc2-c2ccc(S(C)(=O)=O)cc2)cn1` [Methanol solvate], the “Onset temperature … in TG test” value [2] is reported as 27 ± 1 °C and the “Onset temperature … in TG test” value ([2]; listed as methanol solvate of etoricoxib) is reported as 27 °C.

In the case of `Cc1ccc(-c2ncc(Cl)cc2-c2ccc(S(C)(=O)=O)cc2)cn1` [NMP solvate], the “Onset temperature … in TG test” value [2] is reported as 79 ± 1 °C and the “Onset temperature … in TG test” value ([2]; listed as NMP solvate of etoricoxib) is reported as 79 °C.

In the case of `Cc1ccc(-c2ncc(Cl)cc2-c2ccc(S(C)(=O)=O)cc2)cn1` [Sesquihydrate, 5-chloro-6′-methyl-3-[4-(methylsulfonyl)phenyl]-2,3′-bipyridine], the “onset temperature of dehydration” value ([6]; listed as sesquihydrate) is given as “lower than 23 °C”.

In the case of `Cc1ccc(-c2ncc(Cl)cc2-c2ccc(S(C)(=O)=O)cc2)cn1` [etoricoxib crystal form V, 5-chloro-6′-methyl-3-[4-(methylsulfonyl)phenyl]-2,3′-bipyridine, reference compound], the “solubility in aqueous solution” value [1] is reported as 307.9 µg/mL (≈ 858 µM), the “variation coefficient” value [3] is reported as 57.2% and the volume-average size [3] is reported as 16 μm. It also gave a repose angle [5] of 44 °.

Reference: patent publication US11655231B2, “Etoricoxib solvates and preparation method thereof” (Tianjin University, priority 2020, dated 2023)
